This note sets out measurements from ChEMBL document CHEMBL3826885, “Similarities and differences in affinity and binding modes of tricyclic pyrimido- and pyrazinoxanthines at human and rat adenosine receptors” (Bioorg Med Chem, 2016).

The test system of the experiment is CHO. In words: Selectivity ratio of Ki for recombinant rat adenosine receptor A2b expressed in CHO cell membranes to Ki for recombinant human adenosine receptor A2b expressed in CHO cell membranes. Format: cell-based.

As for `CCCCn1c(=O)c2c(nc3n2CCCN3CCc2ccc(OCCN(CC)CC)cc2)n(CCCC)c1=O`, the Ratio Ki was found to be 10.
